Laboratory results taken from paper PMC3206815, “An Essential Farnesylated Kinesin in Trypanosoma brucei” (PLoS ONE, 2011).

Molecular target: T1, Kinesin^CaaX (Trypanosoma brucei, UniProt Q388Z9)
T1 construct: gene Tb10.389.1270; truncated N-terminal 340-residue motor domain plus coil (full length 832 residues), N-terminal 6xHis, E. coli BL21 soluble lysate, about 44 kDa
T1 sequence (Q388Z9 1-340): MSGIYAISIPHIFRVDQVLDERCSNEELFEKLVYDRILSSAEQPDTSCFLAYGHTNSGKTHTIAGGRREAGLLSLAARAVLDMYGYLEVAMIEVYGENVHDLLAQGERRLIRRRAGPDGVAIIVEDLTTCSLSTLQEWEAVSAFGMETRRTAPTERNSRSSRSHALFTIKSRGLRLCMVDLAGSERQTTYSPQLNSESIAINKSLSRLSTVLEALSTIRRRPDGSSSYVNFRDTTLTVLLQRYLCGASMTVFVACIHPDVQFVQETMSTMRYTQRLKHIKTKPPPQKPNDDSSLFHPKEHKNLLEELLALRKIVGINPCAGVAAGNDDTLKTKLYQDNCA
Assay: microtubule gliding motility assay
Format: biochemical
Conditions: 1 mM MgATP, BRB80 pH 6.9, taxol-stabilised bovine microtubules; E. coli lysate with recombinant motor domain

SMILES: Nc1ncnc2c1ncn2[C@@H]1O[C@H](COP(=O)(O)OP(=O)(O)OP(=O)(O)O)[C@@H](O)[C@H]1O [ATP]
- microtubule gliding motility assay: both ATP and the Kinesin^CaaX motor domain were required to move microtubules
